Assay results reported in ChEMBL document CHEMBL1123709, “Affinity labels for beta-adrenoceptors: preparation and properties of alkylating beta-blockers derived from indole” (J Med Chem, 1987).

How the values were obtained:
Adrenergic receptor beta [1] = molecular target: T1, Adrenergic receptor beta (Rattus norvegicus, UniProt P18090+P10608+P26255); assay: Binding affinity against the [3H]dihydroalprenolol binding sites on beta adrenergic receptor of rat heart reticulocytes pretreated with alkylating beta-blockers
Adrenergic receptor beta [2] = molecular target: T1, Adrenergic receptor beta; assay: Binding affinity against beta adrenergic receptor from rat heart tissues was determined; type: protein assay
Adrenergic receptor beta [3] = molecular target: T1, Adrenergic receptor beta; assay: Binding affinity against beta adrenergic receptor from rat lung tissues was determined; type: protein assay
Adrenergic receptor beta [4] = molecular target: T1, Adrenergic receptor beta; assay: Binding affinity against the [3H]dihydroalprenolol binding to beta adrenergic receptor of rat lung reticulocytes pretreated with alkylating beta-blockers
[5] = molecular target: T2, Adrenergic receptor beta (Rattus norvegicus) (UniProt P18090+P10608+P26255); assay: Concentration of binding sites of protein for [3H]dihydroalprenolol binding sites on beta adrenergic receptor of rat heart reticulocytes was determined
Adrenergic receptor beta [6] = molecular target: T1, Adrenergic receptor beta; assay: Binding affinity against the [3H]dihydroalprenolol binding to beta adrenergic receptor of rat heart reticulocytes pretreated with alkylating beta-blockers
[7] = molecular target: T2, Adrenergic receptor beta (Rattus norvegicus); assay: Percent potency for irreversible blockade of the [3H]dihydroalprenolol binding to beta adrenergic receptor of rat heart reticulocytes pretreated with alkylating beta blockers at concentration of 1 x 10e-6 M
[8] = molecular target: T2, Adrenergic receptor beta (Rattus norvegicus); assay: Percent potency for irreversible blockade of the [3H]dihydroalprenolol binding to beta adrenergic receptor of rat heart reticulocytes pretreated with alkylating beta blockers at concentration of 1 x 10e-7 M

| Structure (SMILES) | Kd (Adrenergic receptor beta [1]) [nM] | Ki (Adrenergic receptor beta [2]) [nM] | Ki (Adrenergic receptor beta [3]) [nM] | Kd (Adrenergic receptor beta [4]) [nM] | Bmax (fM (mg of protein)-1) [5] | Kd (Adrenergic receptor beta [6]) [nM] | Blockade [7] [%] | Blockade [8] [%] |
| --- | --- | --- | --- | --- | --- | --- | --- | --- |
| CC1(NC(=O)CBr)CCC(C(C)(C)NCC(O)COc2cccc3[nH]ccc23)CC1 (stereo unspecified) | 2 | 22.6 | 4.46 | 1.4 |  |  |  |  |
| CC1(NCC(O)COc2cccc3[nH]c(C#N)cc23)CCC(C(C)(C)NC(=O)CBr)CC1 (stereo unspecified) |  | 0.61 | 1.49 | 1 | 11 | 1.6 | 95 | 89 |
| CC1(NCC(O)COc2cccc3[nH]ccc23)CCC(C(C)(C)NC(=O)CBr)CC1 (stereo unspecified) |  | 0.46 | 1.34 |  |  |  |  |  |
| CC1(NC(=O)CBr)CCC(C(C)(C)NCC(O)COc2cccc3[nH]c(C#N)cc23)CC1 (stereo unspecified) |  | 1.83 | 2.78 | 1.2 |  | 1.6 |  |  |
| C=CCc1ccccc1OCC(O)CNC(C)(C)C1CCC(C)(NC(=O)CBr)CC1 (stereo unspecified) |  | 31.2 | 19.8 |  |  |  |  |  |
| C=CCc1ccccc1OCC(O)CNC1(C)CCC(C(C)(C)NC(=O)CBr)CC1 (stereo unspecified) [BROMOACETYL ALPRENOLOL MENTHANE] |  | 391 | 126 |  |  |  |  |  |
